Measurements published in the supplement of paper PMC10307832.

Columns and labels:
Assay in all cases: relative viability (nuclei count vs DMSO), 5 days (fraction); higher = more cells survive
[1] = test system: NCI-H1395
Procedure, shortened: (§1)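 One day after seeding in 1536-well plates, lung cancer cell lines were dosed by pin tool. Dosing was either single-drug or a fixed anchor-drug dose plus five library-drug doses (not always all listed) in √10 steps. After 5 days, nuclei were stained in one fix-and-stain step and counted on 4× images, and relative viability is the nuclei count of treated wells over that of vehicle wells, given as the median of duplicate plates.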

[2] = test system: HOP-62
Procedure, shortened: as §1

[3] = test system: A-427
Procedure, shortened: as §1

[4] = test system: NCI-H522
Procedure, shortened: as §1

[5] = test system: NCI-H1792
Procedure, shortened: as §1

[6] = test system: NCI-H1437
Procedure, shortened: as §1

[7] = test system: HCC-827
Procedure, shortened: as §1

[8] = test system: CAL-12T
Procedure, shortened: as §1

[9] = test system: NCI-H1755
Procedure, shortened: as §1

[10] = test system: SK-LU-1
Procedure, shortened: as §1

[11] = test system: COR-L 105
Procedure, shortened: as §1

[12] = test system: EMC-BAC-2
Procedure, shortened: as §1

[13] = test system: NCI-H23
Procedure, shortened: as §1

[14] = test system: LCLC-103H
Procedure, shortened: as §1

[15] = test system: NCI-H2228
Procedure, shortened: as §1

[16] = test system: HCC-366
Procedure, shortened: as §1

[17] = test system: NCI-H1915
Procedure, shortened: as §1

[18] = test system: SW 1573
Procedure, shortened: as §1

[19] = test system: NCI-H460
Procedure, shortened: as §1

[20] = test system: NCI-H727
Procedure, shortened: as §1

[21] = test system: HARA
Procedure, shortened: as §1

[22] = test system: NCI-H2009
Procedure, shortened: as §1

O=c1cc(N2CCOCC2)oc2c(-c3cccc4c3sc3ccccc34)cccc12 + COc1cccc2cc(-c3nc([C@H]4CC[C@H](C(=O)O)CC4)n4ncnc(N)c34)[nH]c12 [OSI-027] (partner 0.5 µM) showed a relative viability ([1]; first compound 0.01 µM) of 0.574, a relative viability ([1]; first compound 0.03162 µM) of 0.695 and a relative viability ([1]; first compound 0.1 µM) of 0.488. The relative viability ([1]; first compound 0.3162 µM) was 0.68, the relative viability ([1]; first compound 1 µM) was 0.707 and the relative viability ([2]; first compound 0.01 µM) was 0.787. The relative viability ([2]; first compound 0.03162 µM) was 0.842, the relative viability ([2]; first compound 0.1 µM) was 0.821 and the relative viability ([2]; first compound 0.3162 µM) was 0.81. For the same compound, the relative viability ([2]; first compound 1 µM) was 0.804, the relative viability ([3]; first compound 0.01 µM) was 0.514 and the relative viability ([3]; first compound 0.03162 µM) was 0.469. The relative viability ([3]; first compound 0.1 µM) was 0.337, the relative viability ([3]; first compound 0.3162 µM) was 0.484 and the relative viability ([3]; first compound 1 µM) was 0.587. It also gave a relative viability ([4]; first compound 0.01 µM) of 0.83, a relative viability ([4]; first compound 0.03162 µM) of 0.708 and a relative viability ([4]; first compound 0.1 µM) of 0.496. The relative viability ([4]; first compound 0.3162 µM) was 0.737, the relative viability ([4]; first compound 1 µM) was 0.737 and the relative viability ([5]; first compound 0.01 µM) was 0.717. For the same compound, the relative viability ([5]; first compound 0.03162 µM) was 0.716, the relative viability ([5]; first compound 0.1 µM) was 0.653 and the relative viability ([5]; first compound 0.3162 µM) was 0.752. The relative viability ([5]; first compound 1 µM) was 0.779, the relative viability ([6]; first compound 0.01 µM) was 0.907 and the relative viability ([6]; first compound 0.03162 µM) was 0.848. For the same compound, the relative viability ([6]; first compound 0.1 µM) was 0.913, the relative viability ([6]; first compound 0.3162 µM) was 0.944 and the relative viability ([6]; first compound 1 µM) was 0.935. The relative viability ([7]; first compound 0.01 µM) was 0.853, the relative viability ([7]; first compound 0.03162 µM) was 0.813 and the relative viability ([7]; first compound 0.1 µM) was 0.744. It also gave a relative viability ([7]; first compound 0.3162 µM) of 0.772, a relative viability ([7]; first compound 1 µM) of 0.791 and a relative viability ([8]; first compound 0.01 µM) of 0.69. It also gave a relative viability ([8]; first compound 0.03162 µM) of 0.71, a relative viability ([8]; first compound 0.1 µM) of 0.599 and a relative viability ([8]; first compound 0.3162 µM) of 0.728. The relative viability ([8]; first compound 1 µM) was 0.707, the relative viability ([9]; first compound 0.01 µM) was 0.785 and the relative viability ([9]; first compound 0.03162 µM) was 0.691. The relative viability ([9]; first compound 0.1 µM) was 0.783, the relative viability ([9]; first compound 0.3162 µM) was 0.673 and the relative viability ([9]; first compound 1 µM) was 0.685. For the same compound, the relative viability ([10]; first compound 0.01 µM) was 0.35, the relative viability ([10]; first compound 0.03162 µM) was 0.393 and the relative viability ([10]; first compound 0.1 µM) was 0.355. For the same compound, the relative viability ([10]; first compound 0.3162 µM) was 0.398, the relative viability ([10]; first compound 1 µM) was 0.415 and the relative viability ([11]; first compound 0.01 µM) was 0.668. It also gave a relative viability ([11]; first compound 0.03162 µM) of 0.825, a relative viability ([11]; first compound 0.1 µM) of 0.656 and a relative viability ([11]; first compound 0.3162 µM) of 0.786. For the same compound, the relative viability ([11]; first compound 1 µM) was 0.553, the relative viability ([12]; first compound 0.01 µM) was 0.409 and the relative viability ([12]; first compound 0.03162 µM) was 0.427. For the same compound, the relative viability ([12]; first compound 0.1 µM) was 0.419, the relative viability ([12]; first compound 0.3162 µM) was 0.423 and the relative viability ([12]; first compound 1 µM) was 0.385. For the same compound, the relative viability ([13]; first compound 0.01 µM) was 0.641, the relative viability ([13]; first compound 0.03162 µM) was 0.633 and the relative viability ([13]; first compound 0.3162 µM) was 0.757. For the same compound, the relative viability ([13]; first compound 1 µM) was 0.723, the relative viability ([14]; first compound 0.01 µM) was 0.446 and the relative viability ([14]; first compound 0.03162 µM) was 0.462. It also gave a relative viability ([14]; first compound 0.1 µM) of 0.513, a relative viability ([14]; first compound 0.3162 µM) of 0.474 and a relative viability ([14]; first compound 1 µM) of 0.419. It also gave a relative viability ([15]; first compound 0.01 µM) of 0.677, a relative viability ([15]; first compound 0.03162 µM) of 0.775 and a relative viability ([15]; first compound 0.1 µM) of 0.558. The relative viability ([15]; first compound 0.3162 µM) was 0.605, the relative viability ([15]; first compound 1 µM) was 0.548 and the relative viability ([16]; first compound 0.01 µM) was 1. The relative viability ([16]; first compound 0.03162 µM) was 1.38, the relative viability ([16]; first compound 0.1 µM) was 1.12 and the relative viability ([16]; first compound 0.3162 µM) was 0.928. The relative viability ([16]; first compound 1 µM) was 0.955, the relative viability ([17]; first compound 0.01 µM) was 0.672 and the relative viability ([17]; first compound 0.03162 µM) was 0.796. It also gave a relative viability ([17]; first compound 0.1 µM) of 0.663, a relative viability ([17]; first compound 0.3162 µM) of 0.647 and a relative viability ([17]; first compound 1 µM) of 0.65. It also gave a relative viability ([18]; first compound 0.01 µM) of 0.675, a relative viability ([18]; first compound 0.03162 µM) of 0.709 and a relative viability ([18]; first compound 0.1 µM) of 0.678. For the same compound, the relative viability ([18]; first compound 0.3162 µM) was 0.615, the relative viability ([18]; first compound 1 µM) was 0.737 and the relative viability ([19]; first compound 0.01 µM) was 0.659. It also gave a relative viability ([19]; first compound 0.03162 µM) of 0.717, a relative viability ([19]; first compound 0.1 µM) of 0.683 and a relative viability ([19]; first compound 0.3162 µM) of 0.68. It also gave a relative viability ([19]; first compound 1 µM) of 0.653, a relative viability ([20]; first compound 0.01 µM) of 0.498 and a relative viability ([20]; first compound 0.03162 µM) of 0.567. It also gave a relative viability ([20]; first compound 0.1 µM) of 0.473, a relative viability ([20]; first compound 0.3162 µM) of 0.592 and a relative viability ([20]; first compound 1 µM) of 0.659. The relative viability ([21]; first compound 0.01 µM) was 0.549, the relative viability ([21]; first compound 0.03162 µM) was 0.638 and the relative viability ([21]; first compound 0.1 µM) was 0.554. It also gave a relative viability ([21]; first compound 0.3162 µM) of 0.585, a relative viability ([21]; first compound 1 µM) of 0.564 and a relative viability ([22]; first compound 0.01 µM) of 0.697. The relative viability ([22]; first compound 0.03162 µM) was 0.791, the relative viability ([22]; first compound 0.1 µM) was 0.664 and the relative viability ([22]; first compound 0.3162 µM) was 0.65. For the same compound, the relative viability ([22]; first compound 1 µM) was 0.654.
